Values after ≈ are worked out from the molar mass of the structure shown. Active and inactive are the calls of the source. No rule for the calls is given here.
Columns and labels:
Escherichia coli = experiment: Antimicrobial activity against Escherichia coli CIP 53126 after 18 to 24 hrs by broth microdilution method; assay type: functional
Staphylococcus aureus [1] = experiment: Antimicrobial activity against multidrug-resistant Staphylococcus aureus isolate 1 after 18 to 24 hrs by broth microdilution method; assay type: functional
Staphylococcus aureus [2] = experiment: Antimicrobial activity against Staphylococcus aureus CIP 4.83 after 18 to 24 hrs by broth microdilution method; assay type: functional
Staphylococcus aureus [3] = experiment: Antimicrobial activity against methicillin-resistant Staphylococcus aureus ATCC 33592 after 18 to 24 hrs by broth microdilution method; assay type: functional
Enterococcus hirae = experiment: Antimicrobial activity against Enterococcus hirae CIP 5855 after 18 to 24 hrs by broth microdilution method; assay type: functional
Staphylococcus aureus [4] = experiment: Antimicrobial activity against multidrug-resistant Staphylococcus aureus isolate 2 after 18 to 24 hrs by broth microdilution method; assay type: functional
Pseudomonas aeruginosa = experiment: Antimicrobial activity against Pseudomonas aeruginosa CIP 82.118 after 18 to 24 hrs by broth microdilution method; assay type: functional
[5] = test system: Mycobacterium tuberculosis; experiment: Antimycobacterial activity against Mycobacterium tuberculosis H37Rv assessed as growth inhibition at 0.1 uM after 6 days by MTT colorimetric microassay; assay type: functional, organism-based
Staphylococcus aureus [6] = experiment: Antimicrobial activity against methicillin-resistant Staphylococcus aureus ATCC 33591 after 18 to 24 hrs by broth microdilution method; assay type: functional
[7] = test system: Mycobacterium tuberculosis; experiment: Antimycobacterial activity against Mycobacterium tuberculosis H37Rv assessed as growth inhibition at 10 uM after 6 days by MTT colorimetric microassay; assay type: functional; settings: 144 h, read-out: GI
[8] = test system: Mycobacterium tuberculosis; experiment: Antimycobacterial activity against Mycobacterium tuberculosis H37Rv after 6 days by MTT colorimetric microassay; assay type: functional, organism-based; settings: 144 h

| Compound | MBC (Escherichia coli) [µM] | MIC (Escherichia coli) [µM] | MBC (Staphylococcus aureus [1]) [µM] | MIC (Staphylococcus aureus [1]) [µM] | MBC (Staphylococcus aureus [2]) [µM] | MIC (Staphylococcus aureus [2]) [µM] | MBC (Staphylococcus aureus [3]) [µM] | MIC (Staphylococcus aureus [3]) [µM] | MBC (Enterococcus hirae) [µM] | MIC (Enterococcus hirae) [µM] | MBC (Staphylococcus aureus [4]) [µM] | MIC (Staphylococcus aureus [4]) [µM] | MBC (Pseudomonas aeruginosa) [µM] | MIC (Pseudomonas aeruginosa) [µM] | growth inhibition (GI) [5] | MBC (Staphylococcus aureus [6]) [µM] | MIC (Staphylococcus aureus [6]) [µM] | inhibition of growth at 10 µM [7] [%] | IC50 [8] [nM] | MIC [8] [µM] |
| --- | --- | --- | --- | --- | --- | --- | --- | --- | --- | --- | --- | --- | --- | --- | --- | --- | --- | --- | --- | --- |
| CCCCCCC(=O)N1CCN(c2cc3c(cc2F)c(=O)c(C(=O)O)cn3C2CC2)CC1 | 31.2 (≈ 13.8 µg/mL) | 31.2 (≈ 13.8 µg/mL) | 500 (≈ 222 µg/mL) | 62.5 (≈ 27.7 µg/mL) | ≤ 0.12 | ≤ 0.03 | 0.24 (≈ 0.106 µg/mL) | 0.06 (≈ 0.0266 µg/mL) | 31.2 (≈ 13.8 µg/mL) | 31.2 (≈ 13.8 µg/mL) | > 500 | 250 (≈ 111 µg/mL) | 250 (≈ 111 µg/mL) | 62.5 (≈ 27.7 µg/mL) | inactive | 0.48 (≈ 0.213 µg/mL) | 0.06 (≈ 0.0266 µg/mL) | > 95 |  |  |
| CCCCCCCCC(=O)OCC(=O)N1CCN(c2cc3c(cc2F)c(=O)c(C(=O)O)cn3C2CC2)CC1 | 500 (≈ 265 µg/mL) | 62.5 (≈ 33.1 µg/mL) | 15.6 (≈ 8.26 µg/mL) | 7.8 (≈ 4.13 µg/mL) | ≤ 0.12 | ≤ 0.12 | 0.02 (≈ 0.0106 µg/mL) | 0.02 (≈ 0.0106 µg/mL) | ≤ 0.97 | ≤ 0.97 | 15.6 (≈ 8.26 µg/mL) | 7.8 (≈ 4.13 µg/mL) | 250 (≈ 132 µg/mL) | 31.2 (≈ 16.5 µg/mL) | inactive | 0.24 (≈ 0.127 µg/mL) | 0.03 (≈ 0.0159 µg/mL) | > 95 |  |  |
| O=C(O)c1cn(C2CC2)c2cc(N3CCNCC3)c(F)cc2c1=O [CIPROFLOXACIN] | ≤ 0.97 | ≤ 0.97 | 62.5 (≈ 20.7 µg/mL) | 31.2 (≈ 10.3 µg/mL) | ≤ 0.97 | ≤ 0.97 | 0.97 (≈ 0.321 µg/mL) | 0.48 (≈ 0.159 µg/mL) | 1.9 (≈ 0.63 µg/mL) | ≤ 0.97 | 31.2 (≈ 10.3 µg/mL) | 31.2 (≈ 10.3 µg/mL) | ≤ 0.97 | ≤ 0.97 | inactive | 1.9 (≈ 0.63 µg/mL) | 0.97 (≈ 0.321 µg/mL) |  | 1600 | 2.5 (≈ 0.828 µg/mL) |
| CCCCCCCCCCCCNC(=O)c1cn2c3c(c(N4CCN(C)CC4)c(F)cc3c1=O)OC[C@@H]2C | 500 (≈ 264 µg/mL) | 125 (≈ 66.1 µg/mL) |  |  | 15.6 (≈ 8.25 µg/mL) | 3.9 (≈ 2.06 µg/mL) |  |  | 3.9 (≈ 2.06 µg/mL) | 3.9 (≈ 2.06 µg/mL) |  |  | 250 (≈ 132 µg/mL) | 62.5 (≈ 33 µg/mL) | inactive |  |  | > 95 |  |  |
| CCCCCCCCCCC(=O)OCC(=O)N1CCN(c2cc3c(cc2F)c(=O)c(C(=O)O)cn3C2CC2)CC1 | 250 (≈ 139 µg/mL) | 62.5 (≈ 34.9 µg/mL) | 500 (≈ 279 µg/mL) | 15.6 (≈ 8.7 µg/mL) | ≤ 0.97 | ≤ 0.97 | 0.03 (≈ 0.0167 µg/mL) |  | 1.9 (≈ 1.06 µg/mL) | ≤ 0.97 | 15.6 (≈ 8.7 µg/mL) | 7.8 (≈ 4.35 µg/mL) | 250 (≈ 139 µg/mL) | 62.5 (≈ 34.9 µg/mL) | inactive | 1.9 (≈ 1.06 µg/mL) | 0.97 (≈ 0.541 µg/mL) | > 95 |  |  |
| CCCCCC(=O)OCOC(=O)c1cn2c3c(c(N4CCN(C)CC4)c(F)cc3c1=O)OC[C@@H]2C |  |  |  |  |  |  |  |  |  |  |  |  |  |  | inactive |  |  | > 95 |  |  |
| CCCCCCCCCC(=O)OCOC(=O)c1cn2c3c(c(N4CCN(C)CC4)c(F)cc3c1=O)OC[C@@H]2C | ≤ 0.97 | ≤ 0.97 |  |  | ≤ 0.97 | ≤ 0.97 |  |  | 1.9 (≈ 1.04 µg/mL) | ≤ 0.97 |  |  | 3.9 (≈ 2.13 µg/mL) | ≤ 0.97 | inactive |  |  | > 95 |  |  |
| O=C(O)c1cn(C2CC2)c2cc(N3CCN(C(=O)CCCCCCCCCCC(=O)N4CCN(c5cc6c(cc5F)c(=O)c(C(=O)O)cn6C5CC5)CC4)CC3)c(F)cc2c1=O | 62.5 (≈ 53.6 µg/mL) | 62.5 (≈ 53.6 µg/mL) | 500 (≈ 428 µg/mL) | 125 (≈ 107 µg/mL) | ≤ 0.97 | ≤ 0.12 | 1.9 (≈ 1.63 µg/mL) | 0.12 (≈ 0.103 µg/mL) | 500 (≈ 428 µg/mL) | 125 (≈ 107 µg/mL) | 500 (≈ 428 µg/mL) | 125 (≈ 107 µg/mL) | 250 (≈ 214 µg/mL) | 62.5 (≈ 53.6 µg/mL) | inactive | 3.9 (≈ 3.34 µg/mL) | 0.48 (≈ 0.411 µg/mL) |  |  |  |
| O=C(CCCCCCCCCCCCCC(=O)OCN1CCN(c2cc3c(cc2F)c(=O)c(C(=O)O)cn3C2CC2)CC1)OCN1CCN(c2cc3c(cc2F)c(=O)c(C(=O)O)cn3C2CC2)CC1 | 62.5 (≈ 59.9 µg/mL) | 31.2 (≈ 29.9 µg/mL) | 500 (≈ 480 µg/mL) | 62.5 (≈ 59.9 µg/mL) | ≤ 0.48 | ≤ 0.12 | 0.97 (≈ 0.93 µg/mL) | 0.12 (≈ 0.115 µg/mL) | 15.6 (≈ 15 µg/mL) | 7.8 (≈ 7.48 µg/mL) | 62.5 (≈ 59.9 µg/mL) | 31.2 (≈ 29.9 µg/mL) | 250 (≈ 240 µg/mL) | 62.5 (≈ 59.9 µg/mL) | inactive | 1.9 (≈ 1.82 µg/mL) | 0.48 (≈ 0.46 µg/mL) |  |  |  |
| O=C(O)c1cn(C2CC2)c2cc(N3CCN(C(=O)COCc4ccccc4)CC3)c(F)cc2c1=O | 1.9 (≈ 0.911 µg/mL) | ≤ 0.97 | 500 (≈ 240 µg/mL) | 125 (≈ 59.9 µg/mL) | ≤ 0.24 | ≤ 0.12 | 0.97 (≈ 0.465 µg/mL) | 0.24 (≈ 0.115 µg/mL) | 7.8 (≈ 3.74 µg/mL) | 7.8 (≈ 3.74 µg/mL) | 125 (≈ 59.9 µg/mL) | 62.5 (≈ 30 µg/mL) | 250 (≈ 120 µg/mL) | 15.6 (≈ 7.48 µg/mL) | inactive | 0.97 (≈ 0.465 µg/mL) | 0.48 (≈ 0.23 µg/mL) |  |  |  |

Reference: ChEMBL document CHEMBL1914411, “Synthesis of lipophilic dimeric C-7/C-7-linked ciprofloxacin and C-6/C-6-linked levofloxacin derivatives. Versatile in vitro biological evaluations of monomeric and dimeric fluoroquinolone derivatives as potential antitumor, antibacterial or antimycobacterial agents” (Eur J Med Chem, 2011)
